Experimental data as given in ChEMBL document CHEMBL1201862, “PubChem BioAssay data set” (2004).
Activity calls are given as the source filed them.

What was measured:
[1] = viability inhibitors of stage V gametocytes – luminescence, dose response (AID 1117278); assay type: functional, cell-based;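 also: gametocytes exposed to compound for 24 hours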
[2] = viability loss in human Jurkat cells – cell-based, luminescence, cytotoxicity control for P. falciparum gametocyte viability project, dose response (AID 1117277); assay type: functional;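 also: potency reflects loss of cellular ATP meaning fewer viable cells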
Prothrombin = Prothrombin (Homo sapiens, UniProt P00734); assay: Thrombin 1536 HTS Dose Response Confirmation. [Related pubchem assays: 1046 (Thrombin 1536 HTS; hits were confirmed in this assay)]; assay type: functional
[3] = molecular target: T1, Luciferin 4-monooxygenase (Photinus pyralis, UniProt P08659); assay: Counter Screen for Luciferase-based Assay Positives. [Related pubchem assays: 620, 618, 411 ]
T1 sequence (P08659 whole entry): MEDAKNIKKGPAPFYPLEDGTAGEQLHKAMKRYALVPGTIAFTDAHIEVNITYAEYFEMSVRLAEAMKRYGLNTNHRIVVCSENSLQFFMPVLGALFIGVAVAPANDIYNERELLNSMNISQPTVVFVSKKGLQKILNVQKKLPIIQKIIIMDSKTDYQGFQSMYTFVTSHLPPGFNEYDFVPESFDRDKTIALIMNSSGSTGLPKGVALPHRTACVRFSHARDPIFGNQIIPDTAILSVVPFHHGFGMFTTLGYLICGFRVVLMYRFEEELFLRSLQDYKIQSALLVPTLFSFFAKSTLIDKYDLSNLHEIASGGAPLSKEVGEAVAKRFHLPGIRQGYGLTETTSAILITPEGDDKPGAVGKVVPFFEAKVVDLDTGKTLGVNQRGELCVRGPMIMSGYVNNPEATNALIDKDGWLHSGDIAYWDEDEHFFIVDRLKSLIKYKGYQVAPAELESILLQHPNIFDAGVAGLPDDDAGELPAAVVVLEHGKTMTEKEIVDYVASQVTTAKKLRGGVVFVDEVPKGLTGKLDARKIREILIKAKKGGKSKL

HT-1080 = assay: HT1080 cell viability loss – fluorescence readout (AID 620); assay type: functional, cell-based; conditions: Homo sapiens
[4] = molecular target: Mitogen-activated protein kinase 10 (Homo sapiens, UniProt P53779); assay: Dose response biochemical screening assay for inhibitors of c-Jun N-Terminal Kinase 3 (JNK3). [Related pubchem assays: 746 ]
Mitogen-activated protein kinase 10, sequence (P53779 whole entry): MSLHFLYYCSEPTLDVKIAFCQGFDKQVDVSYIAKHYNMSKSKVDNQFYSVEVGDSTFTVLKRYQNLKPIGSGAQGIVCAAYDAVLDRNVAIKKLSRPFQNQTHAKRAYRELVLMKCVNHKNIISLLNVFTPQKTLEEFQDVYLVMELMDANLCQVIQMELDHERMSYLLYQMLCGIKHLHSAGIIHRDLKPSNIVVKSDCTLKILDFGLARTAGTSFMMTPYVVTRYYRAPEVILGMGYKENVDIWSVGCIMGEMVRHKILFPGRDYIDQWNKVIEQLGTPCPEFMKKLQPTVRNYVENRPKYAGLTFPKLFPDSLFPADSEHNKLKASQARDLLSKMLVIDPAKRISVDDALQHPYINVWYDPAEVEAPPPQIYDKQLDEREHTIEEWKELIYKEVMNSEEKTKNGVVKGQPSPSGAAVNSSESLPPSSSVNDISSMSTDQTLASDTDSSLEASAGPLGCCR

Estrogen receptor = molecular target: T2, Estrogen receptor (Homo sapiens, UniProt P03372);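 also: potency for inhibiting coactivator peptide recruitment to the receptor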
T2 sequence (P03372 whole entry): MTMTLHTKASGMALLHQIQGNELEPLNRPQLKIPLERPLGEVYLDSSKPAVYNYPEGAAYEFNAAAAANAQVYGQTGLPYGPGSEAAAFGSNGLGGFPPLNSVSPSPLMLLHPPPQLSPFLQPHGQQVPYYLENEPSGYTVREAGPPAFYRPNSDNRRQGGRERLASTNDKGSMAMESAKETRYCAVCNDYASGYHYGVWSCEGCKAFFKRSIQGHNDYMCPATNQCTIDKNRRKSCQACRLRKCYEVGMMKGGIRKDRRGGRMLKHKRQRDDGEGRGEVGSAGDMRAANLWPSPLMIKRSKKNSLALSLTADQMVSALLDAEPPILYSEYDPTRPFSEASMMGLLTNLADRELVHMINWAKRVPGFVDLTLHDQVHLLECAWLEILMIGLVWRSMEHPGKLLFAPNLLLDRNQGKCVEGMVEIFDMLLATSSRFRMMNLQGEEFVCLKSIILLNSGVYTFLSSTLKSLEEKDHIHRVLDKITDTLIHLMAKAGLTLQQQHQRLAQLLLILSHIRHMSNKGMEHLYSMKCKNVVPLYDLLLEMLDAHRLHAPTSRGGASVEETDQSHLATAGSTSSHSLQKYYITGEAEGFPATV

[5] = inhibition of ADAM10 peptide cleavage – biochemical, FRET peptide substrate, recombinant human ADAM10, selectivity assay for ADAM17 exosite inhibitor project, dose response (AID 743259);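 also: ADAM10 enzyme cleaving a FRET peptide substrate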
[6] = molecular target: Disintegrin and metalloproteinase domain-containing protein 17 (Homo sapiens, UniProt P78536); assay: exosite inhibitors of ADAM17, dose response, biochemical (AID 743260)
Disintegrin and metalloproteinase domain-containing protein 17, sequence (P78536 whole entry, the tested form may be a part): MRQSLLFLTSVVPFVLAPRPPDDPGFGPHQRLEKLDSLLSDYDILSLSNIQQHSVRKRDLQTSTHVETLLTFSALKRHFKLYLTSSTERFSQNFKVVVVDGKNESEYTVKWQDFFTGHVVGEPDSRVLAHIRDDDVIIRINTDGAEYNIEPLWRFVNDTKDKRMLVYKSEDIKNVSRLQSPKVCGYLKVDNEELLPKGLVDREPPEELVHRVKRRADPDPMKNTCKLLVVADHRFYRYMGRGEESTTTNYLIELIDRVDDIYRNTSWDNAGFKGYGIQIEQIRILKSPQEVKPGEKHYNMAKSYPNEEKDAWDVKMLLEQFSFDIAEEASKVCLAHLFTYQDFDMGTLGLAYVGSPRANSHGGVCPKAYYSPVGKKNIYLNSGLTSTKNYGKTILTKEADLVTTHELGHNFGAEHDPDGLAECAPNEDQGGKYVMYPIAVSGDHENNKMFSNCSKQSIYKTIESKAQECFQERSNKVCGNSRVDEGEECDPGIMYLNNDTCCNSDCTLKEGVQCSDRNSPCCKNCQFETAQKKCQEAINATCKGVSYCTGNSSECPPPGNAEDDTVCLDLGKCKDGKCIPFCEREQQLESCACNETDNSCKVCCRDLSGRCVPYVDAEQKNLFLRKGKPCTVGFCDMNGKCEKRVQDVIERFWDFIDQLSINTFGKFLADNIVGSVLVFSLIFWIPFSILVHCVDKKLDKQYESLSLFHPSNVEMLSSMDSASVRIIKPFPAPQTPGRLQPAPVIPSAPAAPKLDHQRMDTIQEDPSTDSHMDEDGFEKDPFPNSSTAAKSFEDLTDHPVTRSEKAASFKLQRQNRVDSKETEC

[7] = microbe, parasite or virus in culture; assay type: functional; conditions: Mycobacterium tuberculosis
[8] = viability loss in CEM21 cells – cell-based, CellTiter-Glo luminescence, cherry-picked, cytotoxicity control for viral fusion inhibitor project, dose response (AID 652042); assay type: functional;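 also: potency for signal decrease meaning cytotoxicity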
INS1 = assay: INS-1E survival protection against cytokine death – cell-based, luminescence, retest, dose response (AID 449756); assay type: functional; conditions: Rattus norvegicus;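 also: cell death triggered by IL-1 beta plus TNF-alpha plus IFN-gamma mixture; protective hits raise ATP signal compared with cytokine alone wells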
[9] = blockers of HIV-1 ZM109 envelope-driven cell-cell fusion – HeLa effector, CEM target cells, luciferase, cherry-pick, dose response (AID 652058); assay type: functional, cell-based;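 also: luciferase signal from HIV-1 Env mediated cell-cell fusion of effector and target cells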
[10] = molecular target: FAD-linked sulfhydryl oxidase ALR (Homo sapiens, UniProt P55789); assay: ALR-catalysed DTT oxidation blockers – biochemical, H2O2 detection, luminescence, cherry-pick, dose response (AID 493248)
FAD-linked sulfhydryl oxidase ALR, sequence (P55789 whole entry, the tested form may be a part): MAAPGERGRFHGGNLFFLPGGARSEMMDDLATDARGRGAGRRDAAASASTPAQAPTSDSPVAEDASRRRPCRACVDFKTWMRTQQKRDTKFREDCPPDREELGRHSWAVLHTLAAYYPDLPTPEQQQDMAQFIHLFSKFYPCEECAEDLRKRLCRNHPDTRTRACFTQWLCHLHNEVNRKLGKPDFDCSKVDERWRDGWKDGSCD

[11] = HIV-1 AD8 envelope cell-cell fusion blockers – cherry-pick, dose response (AID 652062); assay type: functional, cell-based;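 also: luciferase signal from cell-cell fusion driven by HIV-1 clade B AD8 Env; potency is for inhibitors of fusion seen as a drop in luminescence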
[12] = off-target signal loss in HeLa-CEM21 co-culture – HeLa F-luc CTL cells, cherry-picked, counter-screen for HIV-1 Env fusion inhibitor project, dose response (AID 652040); assay type: functional, cell-based;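 also: potency for signal decrease marking cytotoxic or nonspecific inhibition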
[13] = blockers of HIV-1 envelope-mediated cell-cell fusion – cherry-pick, dose response (AID 652057); assay type: functional, cell-based
[14] = molecular target: T3, Oxysterols receptor LXR-beta (Homo sapiens, UniProt P55055); assay: LXR agonists, Gal4 luciferase reporter, dose response, counter-screen for ssDAF-12 agonist project, cell-based, luminescence, HEK293, S. stercoralis campaign (AID 720737); assay type: functional; conditions: read-out: IC50 (the source's name)
T3 sequence (P55055 whole entry): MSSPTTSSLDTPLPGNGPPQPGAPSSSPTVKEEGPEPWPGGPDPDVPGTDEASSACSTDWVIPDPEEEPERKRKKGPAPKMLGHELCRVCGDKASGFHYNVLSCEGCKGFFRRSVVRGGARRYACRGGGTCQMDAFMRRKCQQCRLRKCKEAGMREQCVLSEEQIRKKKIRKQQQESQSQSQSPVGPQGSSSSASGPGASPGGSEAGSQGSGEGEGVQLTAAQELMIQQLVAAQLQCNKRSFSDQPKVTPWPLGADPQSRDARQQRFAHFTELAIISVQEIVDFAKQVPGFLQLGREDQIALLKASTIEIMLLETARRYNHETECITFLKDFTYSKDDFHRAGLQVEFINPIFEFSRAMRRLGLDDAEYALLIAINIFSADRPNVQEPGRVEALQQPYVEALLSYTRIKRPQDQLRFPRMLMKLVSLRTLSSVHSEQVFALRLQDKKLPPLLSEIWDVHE

[15] = Luminescence-based cell-based high throughput dose response assay to identify activators of the DAF-12 from the parasite S. stercoralis (ssDAF-12).; assay type: functional
[16] = NIH3T3 cell viability loss – ATP luminescence, mouse fibroblasts, counter-screen, dose response (AID 2010); assay type: functional, cell-based;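 also: cells exposed to compound for about 90 hours before reading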
[17] = Trypanosoma cruzi growth suppression in host cells – NIH3T3 host cells, beta-gal luminescence, confirmation (AID 2044); assay type: functional, cell-based;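 also: intracellular parasites grown in NIH/3T3 mouse fibroblasts as host cells; luminescent beta-galactosidase reporter signal from transgenic T. cruzi replicating inside host cells; inhibitors lower the luminescence signal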
[18] = growth inhibition of yeast DHODH-expressing 3D7 parasites – SYBR Green, dry powder samples, dose response (AID 1159570); assay type: functional, cell-based;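 also: parasite growth measured after 72 hours of compound exposure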
[19] = IGROV1 cell killing – plate reader, dry powder samples, PAX8 inhibitor project, dose response (AID 743043); assay type: functional, cell-based; conditions: IGROV-1
[20] = Dd2 malaria parasite growth inhibition potency – SYBR Green, dry powder samples, dose response (AID 1159566); assay type: functional, cell-based;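 also: potency for growth inhibition with lower SYBR green DNA signal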
[21] = A2780 cell killing – plate reader, dry powder samples, cytotoxicity control, dose response (AID 743046); assay type: functional, cell-based
[22] = P. falciparum Dd2 growth inhibitors, dose response, SYBR Green, cherry-picked samples (AID 1159567); assay type: functional, cell-based
Paired box protein Pax-8 = Paired box protein Pax-8 (Homo sapiens, UniProt Q06710); assay: PAX8 transcriptional activity inhibition in RMG-I – RMG-I cells, luciferase, cherry-pick, dose response (AID 687027); assay type: functional, cell-based;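 also: luciferase reporter driven by Pax8 target thyroperoxidase promoter measured by SteadyGlo luminescence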
Paired box protein Pax-8, sequence (Q06710 whole entry): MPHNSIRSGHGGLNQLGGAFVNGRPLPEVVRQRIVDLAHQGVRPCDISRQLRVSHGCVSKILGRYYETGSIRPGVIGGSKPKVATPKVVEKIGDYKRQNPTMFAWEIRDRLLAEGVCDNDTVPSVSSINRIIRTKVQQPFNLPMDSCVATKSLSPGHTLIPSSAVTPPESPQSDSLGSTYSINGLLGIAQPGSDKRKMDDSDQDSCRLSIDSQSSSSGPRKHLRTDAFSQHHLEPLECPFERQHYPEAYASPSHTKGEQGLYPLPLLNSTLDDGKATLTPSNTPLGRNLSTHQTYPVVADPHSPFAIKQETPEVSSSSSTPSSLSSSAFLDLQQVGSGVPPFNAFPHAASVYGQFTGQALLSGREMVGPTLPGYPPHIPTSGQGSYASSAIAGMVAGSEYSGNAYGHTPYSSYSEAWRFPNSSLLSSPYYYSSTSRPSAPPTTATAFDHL

[23] = growth inhibition of PfATP4-mutant resistant parasites – NITD609-resistant line, SYBR Green, dry powder, dose response (AID 1159571); assay type: functional, cell-based;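 also: parasites synchronized at ring stage by sorbitol before testing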
[24] = OVCAR8 cell viability loss – plate reader, dry powder samples, PAX8 project, dose response (AID 743197); assay type: functional, cell-based; conditions: OVCAR-8
[25] = OVCAR-3 cell viability loss – plate reader, dry powder samples, PAX8 inhibitor project, dose response (AID 743044); assay type: functional, cell-based
[26] = toxicity to human HepG2 hepatoma cells – cell-based, plate reader, dry powder samples, cytotoxicity control, dose response (AID 1159569); assay type: functional;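 also: inhibitor potency with signal falling toward the positive control level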
[27] = Luminescence Cell-Based Dose Confirmation HTS to Identify Inhibitors of Platelet Dense Granule Release. [Related pubchem assays: 1663 (Primary HTS), 1678 (Summary of Project)]; assay type: functional
[28] = molecular target: T1, Luciferin 4-monooxygenase; assay: inhibition of purified Photinus pyralis luciferase – biochemical, luminescence, dose response (AID 1891)
[29] = molecular target: T4, Heat shock factor protein 1 (Mus musculus, UniProt P38532); assay: decrease of HSF1-responsive luciferase luminescence – cell-based, NIH3T3, dose retest, confirmation (AID 2382); assay type: functional;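 also: NIH3T3 fibroblasts with HSF1-driven luciferase reporter stressed by proteasome inhibitor MG132; luminescence from HSF1-driven luciferase expression after 8 hours of MG132 stress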
T4 sequence (P38532 whole entry): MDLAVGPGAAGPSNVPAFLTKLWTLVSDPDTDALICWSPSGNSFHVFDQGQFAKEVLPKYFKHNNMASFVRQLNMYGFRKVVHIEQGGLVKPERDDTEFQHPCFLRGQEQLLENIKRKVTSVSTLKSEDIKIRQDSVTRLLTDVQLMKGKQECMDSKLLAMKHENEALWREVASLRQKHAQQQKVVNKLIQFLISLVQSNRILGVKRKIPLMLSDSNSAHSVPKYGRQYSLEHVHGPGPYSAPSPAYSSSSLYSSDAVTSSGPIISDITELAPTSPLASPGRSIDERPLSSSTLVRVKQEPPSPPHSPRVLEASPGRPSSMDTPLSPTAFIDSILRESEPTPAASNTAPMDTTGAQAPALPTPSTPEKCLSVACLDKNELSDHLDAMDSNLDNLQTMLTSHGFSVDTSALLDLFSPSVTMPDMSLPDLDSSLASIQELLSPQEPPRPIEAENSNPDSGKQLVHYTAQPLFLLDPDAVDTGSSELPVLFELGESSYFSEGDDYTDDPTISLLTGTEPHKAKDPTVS

[30] = alpha-synuclein stem-loop luciferase translation blockers – H4 neuroglioma cells, luminescence, confirmation (AID 1988); assay type: functional, cell-based
[31] = Luminescence Cell-Based Dose Response HTS to Identify Inhibitors of 5'UTR Stem-Loop Driven Prion Protein mRNA Translation in H4 Neuroglioblastoma Cells. [Related pubchem assays: 1827 (Project Summary), 1813 (Primary HTS)]; assay type: functional

CCc1ccc(CN(C)Cc2nc(COc3ccccc3)no2)nc1
IC50 [1]: > 109 µM (inactive) | IC50 [2]: > 83.3 µM (inactive)

O=C1c2ccccc2C(O)N1Cc1cccs1 (stereo unspecified)
IC50 [1]: > 109 µM (inactive) | IC50 [2]: > 83.3 µM (inactive)

COC(=O)CN1C(=O)C(O)(CC(=O)c2ccc(Cl)cc2)c2ccccc21 (stereo unspecified)
IC50 (Prothrombin): > 50 µM (not active)

Cc1cccc(-n2ncc3c(N4CCCC4)ncnc32)c1
EC50 [3]: 1.02 µM (active) | EC50 (HT-1080): > 50 µM (not active)

Cc1nc2cccc(C(=O)NCc3ccccc3)c2o1
IC50 [4]: 45.5 µM (not active) | IC50 (Estrogen receptor): 48.4 µM (not active)

CC(=O)Oc1ccc(C(=O)Nc2cccc(C(=O)c3ccc(C)c(C)c3)c2)cc1
IC50 [5]: > 69.5 µM (inactive) | IC50 [6]: > 69.5 µM (inactive)

c1ccc(-c2n[nH]c3c2CCC3)cc1
IC50 [4]: 50.9 µM (not active)

CC(=O)Nc1ccc(S(=O)(=O)Nc2ccc(N3CCCCC3)cc2)cc1
CC50 [7]: 27.3 µM (active) | AC50 [8]: 23.4 µM (active) | AC50 (INS1): 3.64 µM (active) | AC50 [9]: 1.18 µM (active) | AC50 [10]: 2.07 µM (active) | AC50 [11]: 17.8 µM (active) | AC50 [12]: 22.6 µM (active) | AC50 [13]: 10.4 µM (active)

COc1ccc2nc(NC(=O)Cc3ccc(OC)c(S(=O)(=O)N4CCOCC4)c3)sc2c1
IC50 [4]: 28.1 µM (not active)

Cc1ccc(NCc2nc3ccccc3n2C)cc1
EC50 [14]: > 67.5 µM (inactive) | IC50 [15]: > 67.5 µM (inactive)

Cc1ccc(NC(=O)c2ccc3ccccc3n2)cc1S(=O)(=O)N1CCOCC1
IC50 (Prothrombin): 40.9 µM (active)

CC(C)Nc1nc(NC(C)C)nc(N(C#N)CCOc2ccc(Cl)cc2Cl)n1
EC50 [16]: > 60 µM (not active) | IC50 [5]: 13.5 µM (inactive) | IC50 [6]: > 69.5 µM (inactive) | EC50 [17]: 1.4 µM (active)

CN(C)S(=O)(=O)c1cccc(NC(=O)c2cc(-c3cccs3)nn2-c2cccc(Cl)c2)c1
IC50 [5]: > 69.5 µM (inactive) | IC50 [6]: > 69.5 µM (inactive)

COC(=O)c1ccccc1NC(=O)NCc1ccncc1
EC50 [14]: > 67.5 µM (inactive) | IC50 [15]: > 67.5 µM (inactive)

COc1ccc2c3c(n(C)c2c1)[C@H](CO)N(C(=O)Nc1ccc(F)cc1)CC31CCN(C(=O)c2ccc3c(c2)OCO3)CC1
AC50 [18]: 1.2 µM (active) | AC50 [19]: 57.7 µM (active) | AC50 [20]: 0.892 µM (active) | AC50 [21]: 22.5 µM (active) | AC50 [22]: 1.79 µM (active) | AC50 (Paired box protein Pax-8): 6.51 µM (active) | AC50 [23]: 0.75 µM (active) | AC50 [24]: 4.33 µM (active) | AC50 [25]: 28.6 µM (active) | AC50 [26]: > 100 µM (inactive)

Cc1ccccc1-c1ccc2c(c1)O[C@H](CN(C)C(=O)Nc1ccc(C(F)(F)F)cc1)[C@H](C)CN([C@H](C)CO)S2(=O)=O
AC50 [21]: 14.3 µM (active) | AC50 (Paired box protein Pax-8): 9.06 µM (active) | AC50 [24]: > 70 µM (inactive)

CO[C@H]1CN(C)C(=O)c2ccc(NC(=O)C3CC3)cc2OC[C@H](C)N(Cc2cc(F)ccc2F)C[C@@H]1C
AC50 [8]: 59.9 µM (active) | AC50 [9]: 0.668 µM (active) | AC50 [11]: 1.5 µM (active) | AC50 [13]: 0.851 µM (active)

COc1ccc(/N=C/C2=C(O)c3ccccc3C2=O)c(OC)c1
EC50 [27]: 3.47 µM (active) | EC50 [28]: 1.21 µM (active) | EC50 [29]: 2.42 µM (active) | EC50 [30]: 8.03 µM (active) | EC50 [3]: 50.2 µM (active) | EC50 (HT-1080): > 50 µM (not active) | EC50 [31]: 11.7 µM (active)
